Data published in patent US12617783B2, “Heterocyclic GLP-1R agonists” (BIOMEA FUSION, INC., priority 2024, dated 2026).
Where two headings read alike, the source gives them in different places.

Target: T1, human GLP-1R (Homo sapiens, UniProt P43220)
T1 construct: host or cells: HEK293
Test: GLP-1R cAMP assay (Example B1a, HTRF, 30 min at room temperature)
Format: cell-based
In short: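 Competitive HTRF read-out of cAMP after 30 min room-temperature stimulation, BETP absent, of human GLP-1R-HEK293 cells (1,000/well) in HEPES buffer with 500 μM IBMX and 0.1% BSA. Activation normalised to GLP-1(7-37) positive control. EC50 from 4-parameter non-linear regression.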

[1] = cAMP accumulation in HEK293 expressing human GLP-1R, no BETP, 30 min room temperature (Method B1a, compounds ID 1-609), Table 1, read-out: EC50

T1 sequence (P43220 24-463): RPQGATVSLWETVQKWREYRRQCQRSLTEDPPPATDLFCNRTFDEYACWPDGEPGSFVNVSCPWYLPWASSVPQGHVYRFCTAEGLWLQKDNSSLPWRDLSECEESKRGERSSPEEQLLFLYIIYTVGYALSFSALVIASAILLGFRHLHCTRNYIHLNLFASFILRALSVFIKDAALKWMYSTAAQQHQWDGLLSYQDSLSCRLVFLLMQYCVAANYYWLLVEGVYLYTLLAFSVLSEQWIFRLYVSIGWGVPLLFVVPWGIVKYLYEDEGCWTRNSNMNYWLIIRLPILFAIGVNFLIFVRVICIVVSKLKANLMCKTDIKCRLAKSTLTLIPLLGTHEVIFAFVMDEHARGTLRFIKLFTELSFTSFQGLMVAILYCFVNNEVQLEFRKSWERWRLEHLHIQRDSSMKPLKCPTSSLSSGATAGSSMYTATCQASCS

EC50 [1] | Compound | other results
≥ 10000 nM | Cc1cc(-n2nc3c(c2-n2ccn(-c4ccc5c(cnn5C)c4F)c2=O)[C@H]2CC[C@@H](C3)N2C(=O)c2cc3cc([C@@H]4CCOC5(CC5)C4)ccc3n2[C@@]2(c3noc(=O)[nH]3)C[C@@H]2C)cc(C)c1F [Compound 414, 3-((1S,2S)-1-(2-((4R,7S)-3-(3-(4-fluoro-1-methyl-1H-indazol-5-yl)-2-oxo-2,3-dihydro-1H-imidazol-1-yl)-2-(4-fluoro-3,5-dimethylphenyl)-2,4,5,6,7,8-hexahydro-4,7-epiminocyclohepta [c]pyrazole-9-carbonyl)-5-((R)-4-oxaspiro[2.5]octan-7-yl)-1H-indol-1-yl)-2-methylcyclopropyl)-1,2,4-oxadiazol-5 (4H)-one] | 
97.8 nM | Cc1cc(-n2nc3c(c2-n2ccn(-c4ccc5c(cnn5C)c4F)c2=O)[C@@H]2CC[C@H](C3)N2S(=O)(=O)c2cc3cc(C4CCOC(C)(C)C4)ccc3n2[C@@]2(c3noc(=O)[nH]3)C[C@@H]2C)cc(C)c1F (stereo partly drawn) [Compound 503, 3-((1S,2S)-1-(5-(2,2-dimethyltetrahydro-2H-pyran-4-yl)-2-(((4S,7R)-3-(3-(4-fluoro-1-methyl-1H-indazol-5-yl)-2-oxo-2,3-dihydro-1H-imidazol-1-yl)-2-(4-fluoro-3,5-dimethylphenyl)-2,4,5,6,7,8-hexahydro-4,7-epiminocyclohepta [c]pyrazol-9-yl)sulfonyl)-1H-indol-1-yl)-2-methylcyclopropyl)-1,2,4-oxadiazol-5 (4H)-one] | 
162 nM | Cc1cc(-n2nc3c(c2-n2ccn(-c4ccc5c(cnn5C)c4F)c2=O)CN(C(=O)c2cc4cc([C@H]5CCOC(C)(C)C5)ccc4n2[C@@]2(c4noc(=O)[nH]4)C[C@@H]2C)CCC3)cc(C)c1F [Compound 416, 3-((1S,2S)-1-(5-((S)-2,2-dimethyltetrahydro-2H-pyran-4-yl)-2-(3-(3-(4-fluoro-1-methyl-1H-indazol-5-yl)-2-oxo-2,3-dihydro-1H-imidazol-1-yl)-2-(4-fluoro-3,5-dimethylphenyl)-2,4,5,6,7,8-hexahydropyrazolo[4,3-c]azepine-5-carbonyl)-1H-indol-1-yl)-2-methylcyclopropyl)-1,2,4-oxadiazol-5(4H)-one] | 
2450 nM | Cc1cc(-n2nc3c(c2-n2ccn(-c4ccc5c(cnn5C)c4F)c2=O)[C@@H]2CC[C@H](C3)N2C(=O)c2cc3sc([C@H]4CCOC(C)(C)C4)nc3n2[C@@]2(c3noc(=O)[nH]3)C[C@@H]2C)cc(C)c1F [Compound 306, 3-[(1S,2S)-1-[2-[(4S)-2,2-dimethyltetrahydropyran-4-yl]-5-[(1S,8R)-4-(4-fluoro-3,5-dimethyl-phenyl)-3-[3-(4-fluoro-1-methyl-indazol-5-yl)-2-oxo-imidazol-1-yl]-4,5,11-triazatricyclo[6.2.1.02,6]undeca-2,5-diene-11-carbonyl]pyrrolo[2,3-d]thiazol-4-yl]-2-methyl-cyclopropyl]-4H-1,2,4-oxadiazol-5-one] | 
1440 nM | Cc1cc(-n2nc3c(c2-n2ccn(-c4ccc5c(cnn5C)c4F)c2=O)[C@@H]2CC[C@H](C3)N2C(=O)c2cc3cc([C@H]4CCOC5(CC5)C4)ccc3n2[C@]2(c3noc(=O)[nH]3)C[C@@H]2C)cc(C)c1F [Compound 528, 3-[(1R,2S)-1-[2-[(1S,8R)-4-(4-fluoro-3,5-dimethyl-phenyl)-3-[3-(4-fluoro-1-methyl-indazol-5-yl)-2-oxo-imidazol-1-yl]-4,5,11-triazatricyclo[6.2.1.02,6]undeca-2,5-diene-11-carbonyl]-5-[(7S)-4-oxaspiro[2.5]octan-7-yl]indol-1-yl]-2-methyl-cyclopropyl]-4H-1,2,4-oxadiazol-5-one] | 
≥ 10000 nM | Cc1cc(-n2nc3c(c2-n2ccn(-c4ccc(C(=O)N(C)C5CC5)c(Cl)c4)c2=O)[C@@H]2CCC[C@H](C3)N2C(=O)c2cc3cc([C@H]4CCOC(C)(C)C4)ccc3n2[C@@]2(c3noc(=O)[nH]3)C[C@@H]2C)cc(C)c1F [Compound 543, 2-chloro-N-cyclopropyl-4-[3-[(1S,8R)-12-[5-[(4S)-2,2-dimethyltetrahydropyran-4-yl]-1-[(1S,2S)-2-methyl-1-(5-oxo-4H-1,2,4-oxadiazol-3-yl)cyclopropyl]indole-2-carbonyl]-4-(4-fluoro-3,5-dimethyl-phenyl)-4,5,12-triazatricyclo[6.3.1.02,6]dodeca-2,5-dien-3-yl]-2-oxo-imidazol-1-yl]-N-methyl-benzamide] | 
73.5 nM | Cc1cc(-n2nc3c(c2-n2ccn(-c4ccc5c(cnn5C)c4F)c2=O)[C@H](C)N(C(=O)c2cc4cc([C@H]5CCOC(C)(C)C5)ccc4n2[C@@]2(c4noc(=O)[nH]4)C[C@@H]2C)CCC3)cc(C)c1F [Compound 518, 3-[(1S,2S)-1-[5-[(4S)-2,2-dimethyltetrahydropyran-4-yl]-2-[(4S)-2-(4-fluoro-3,5-dimethyl-phenyl)-3-[3-(4-fluoro-1-methyl-indazol-5-yl)-2-oxo-imidazol-1-yl]-4-methyl-4,6,7,8-tetrahydropyrazolo[4,3-c]azepine-5-carbonyl]indol-1-yl]-2-methyl-cyclopropyl]-4H-1,2,4-oxadiazol-5-one] | 
> 10000 nM | Cc1cc(-n2nc3c(c2-n2ccn(-c4ccc5c(cnn5C)c4F)c2=O)[C@@H]2CC[C@H](C3)N2C(=O)c2cc3cc([C@H]4CCOC(C)(C)C4)ccc3n2[C@@]2(C#N)C[C@@H]2C)cc(C)c1F [Compound 137, trans-(1S,2S)-1-[5-[(4S)-2,2-dimethyltetrahydropyran-4-yl]-2-[(1S,8R)-4-(4-fluoro-3,5-dimethyl-phenyl)-3-[3-(4-fluoro-1-methyl-indazol-5-yl)-2-oxo-imidazol-1-yl]-4,5,11-triazatricyclo[6.2.1.02,6]undeca-2,5-diene-11-carbonyl]indol-1-yl]-2-methyl-cyclopropanecarbonitrile] | 
435 nM | Cc1cc(-n2nc3c(c2-n2ccn(-c4ccc5c(cnn5C)c4F)c2=O)[C@@H]2COC[C@H](C3)N2C(=O)c2cc3cc([C@H]4CCOC5(CC5)C4)ccc3n2[C@@]2(c3noc(=O)[nH]3)C[C@@H]2C)cc(C)c1F [Compound 226, 3-((1S,2S)-1-(2-((4R,8S)-3-(3-(4-fluoro-1-methyl-1H-indazol-5-yl)-2-oxo-2,3-dihydro-1H-imidazol-1-yl)-2-(4-fluoro-3,5-dimethylphenyl)-2,4,5,7,8,9-hexahydro-4,8-epiminooxocino [5,4-c]pyrazole-10-carbonyl)-5-((S)-4-oxaspiro[2.5]octan-7-yl)-1H-indol-1-yl)-2-methylcyclopropyl)-1,2,4-oxadiazol-5 (4H)-one] | 
≥ 10000 nM | Cc1cc(-n2nc3c(c2-n2ccn(-c4ccc(CS(C)(=O)=O)cc4)c2=O)[C@@H]2CCC[C@H](C3)N2C(=O)c2cc3cc([C@H]4CCOC(C)(C)C4)ccc3n2[C@@]2(c3noc(=O)[nH]3)C[C@@H]2C)cc(C)c1F [Compound 546, 3-[(1S,2S)-1-[5-[(4S)-2,2-dimethyltetrahydropyran-4-yl]-2-[(1S,8R)-4-(4-fluoro-3,5-dimethyl-phenyl)-3-[3-[4-(methylsulfonylmethyl)phenyl]-2-oxo-imidazol-1-yl]-4,5,12-triazatricyclo[6.3.1.02,6]dodeca-2,5-diene-12-carbonyl]indol-1-yl]-2-methyl-cyclopropyl]-4H-1,2,4-oxadiazol-5-one] | 
> 10000 nM | Cc1cc(-n2nc3c(c2-n2ccn(-c4ccc5c(cnn5C)c4F)c2=O)[C@@H]2CC[C@H](C3)N2C(=O)c2cc3cc([C@H]4CCOC(C)(C)C4)ccc3n2[C@@]2(C(=O)NS(C)(=O)=O)C[C@@H]2C)cc(C)c1F [Compound 201, cis-(1S,2S)-1-[5-[(4S)-2,2-dimethyltetrahydropyran-4-yl]-2-[(1S,8R)-4-(4-fluoro-3,5-dimethyl-phenyl)-3-[3-(4-fluoro-1-methyl-indazol-5-yl)-2-oxo-imidazol-1-yl]-4,5,11-triazatricyclo[6.2.1.02,6]undeca-2,5-diene-11-carbonyl]indol-1-yl]-2-methyl-N-methylsulfonyl-cyclopropanecarboxamide] | 
1130 nM | Cc1cc(-n2nc3c(c2-n2ccn(-c4ccc5c(cnn5C)c4F)c2=O)[C@@H]2COC[C@H](C3)N2S(=O)(=O)c2cc3cc(C4CCOCC4)ccc3n2[C@@]2(c3noc(=O)[nH]3)C[C@@H]2C)cc(C)c1F [Compound 526, 3-[(1S,2S)-1-[2-[[(1R,8S)-4-(4-fluoro-3,5-dimethyl-phenyl)-3-[3-(4-fluoro-1-methyl-indazol-5-yl)-2-oxo-imidazol-1-yl]-10-oxa-4,5,12-triazatricyclo[6.3.1.02,6]dodeca-2,5-dien-12-yl]sulfonyl]-5-tetrahydropyran-4-yl-indol-1-yl]-2-methyl-cyclopropyl]-4H-1,2,4-oxadiazol-5-one] | 

Compound | EC50 [1] | other results
Cc1cc(-n2nc3c(c2-n2ccn(-c4ccc5c(cnn5C)c4F)c2=O)[C@@H]2CC[C@H]([C@H]3F)N2C(=O)c2cc3cc([C@H]4CCOC(C)(C)C4)ccc3n2[C@@]2(c3noc(=O)[nH]3)C[C@@H]2C)cc(C)c1F [Compound 512, 3-[(1S,2S)-1-[5-[(4S)-2,2-dimethyltetrahydropyran-4-yl]-2-[(1S,7R,8R)-7-fluoro-4-(4-fluoro-3,5-dimethyl-phenyl)-3-[3-(4-fluoro-1-methyl-indazol-5-yl)-2-oxo-imidazol-1-yl]-4,5,11-triazatricyclo[6.2.1.02,6]undeca-2,5-diene-11-carbonyl]indol-1-yl]-2-methyl-cyclopropyl]-4H-1,2,4-oxadiazol-5-one] | 226 nM | EC50 Ratio (Table 1d, potency ratio of stereoisomer pair (less potent / more potent isomer)): >83; EC50 (Table 1d, stereoisomer pairs, read-out: EC50): 226 nM; EC50 (text to Table 1d, bridge atoms configured into the plane or away from the reader, read-out: potency (EC50)): < 1000 nM
